Source: patent publication US8343458B2, “Probes for in vivo targeting of active cysteine proteases” (The Board of Trustees of the Leland Stanford Junior …, priority 2008, dated 2013)

Experiments:
[1] = test system: MDA-MB-435 tumor; test: MicroPET imaging of MDA-MB-435 tumor-bearing mice; format: in vivo, mouse; conditions: MDA-MB-435 tumor, 1, 4 and 28 hours post injection
From the text: (§1) FIG. 3 is a composite photograph showing mouse uptake of labeled probe, i.e., a series of photographs of imaged mice. For purposes of reproduction, the image is converted to black and white and reversed. Lightest to darkest is a range between 0% ID (injected dose)/g and 1% ID/g. […] Arrows indicate location of tumors.
(§2) We performed micro PET imaging of mice bearing the MDA-MB-435 and C2C12/Ras tumors. The static microPET images (5 or 10-min scan, three tumor bearing mice were used for each study) of ^64Cu-Z-FK(DOTA)-AOMK are illustrated in coronal images of the subcutaneously implanted tumor-bearing mice (FIG. 3). […] The tumor, indicated by the arrow, is not clearly illuminated.
(§3) PET imaging of tumor-bearing mice is performed on a microPET R4 rodent model scanner (Concorde Microsystems Inc, Knoxyille, Tenn.). The mice bearing C2C12/Ras and MDA-MB-435 tumors were injected with 5.55 MBq (150 μCi) of ^64Cu AOMK probe via the tail vein. At different times p.i., the mice were anesthetized with 2% isoflurane, and placed in the prone position and near the center of the field of view of microPET. The 5 or 10-min static scans were obtained and the images were reconstructed by a two-dimensional ordered subsets expectation maximum (OSEM) algorithm.

[2] = test system: C2C12/Ras tumor; test: MicroPET imaging of C2C12/Ras tumor-bearing mice; format: in vivo, mouse; conditions: 2 and 24 hours post injection, 5.55 MBq i.v.
From the text: as §1, §2, §3

[3] = Octanol/water partition coefficient; format: physicochemical; conditions: octanol / PBS pH 7.4, repeated 3 times
Procedure: Octanol/water partition coefficient. To determine the lipophilicity of ^64Cu-Z-FK(DOTA)-AOMK, approximately 370 kBq of ^64Cu-labeled complex in 500 μl of PBS (pH 7.4) was added to 500 μl of octanol in an eppendorf microcentrifuge tube. The resulting biphasic system was mixed vigorously for 10 min and left at room temperature for another 60 min. The two phases were then separated by centrifugation at 2000 g for 5 min (model 5415R Eppendorf microcentrifuge; Brinkman, Westbury, N.Y.). From each layer, an aliquot of 100 μl was removed and counted in a γ-counter (Packard Instruments). The partition coefficient (log P) was then calculated as a ratio of counts in the octanol fraction to the counts in the water fraction. The experiment was repeated 3 times. The lipophilicity of the probe affects its in vivo pharmacokinetics, and should be modest (˜0), with hydrophobic and hydrophilic groups present. For further details, see Lin et al., “Role of Pharmacokinetics and Metabolism in Drug Discovery and Development,” Pharmacological Reviews, Vol. 49, Issue 4, 403-449, December 1997.

[4] = test system: cathepsins B and L; test: Labeling of intact tumor cells (SDS-PAGE, gel scan); format: cell-based, mouse (C2C12/Ras), human (MDA-MB-435); conditions: C2C12/Ras and MDA-MB-435 cells, 555 KBq probe in culture medium for 2 h
From the text: FIG. 2 is a series of figures which, taken together, show the structure and function of representative in vivo probes. FIG. 2A is a schematic drawing of a chelator—conjugated probe, illustrating several component moieties. FIGS. 2B and 2C are gels showing expression and activity of enzyme targets of such probe, with a radionuclide label attached to the illustrated structure, showing the expression and activity of CB in a mouse myoblast cell line C2C12Ras and human breast cancer cell line MDA-MB-435. […] Cells were pretreated with JPM-OEt (50 μM) (+) or with control DMSO (0.1%) (−) for 2 h and labeled by addition of ^64Cu-Z-FK(DOTA)-AOMK (555 KBq, 15 μCi) to culture medium for 2 h. Cells were collected, lysed and analyzed after SDS-PAGE. The labeled proteases were visualized by scanning of the gel with a Typhoon 9410 imager.
Before applying the radiolabel probe in vivo we first tested the ability of the probe to label multiple tumor cell lines grown in vitro. We initially examined the labeling of the human breast cancer cell line MBA-MB-435 and a mouse myoblastoma cell line that had been transformed by overexpression of the ras oncogene (C2C12/Ras). Both of these cell lines were used for in vivo imaging studies with the NIRF-labeled cysteine cathepsin probes. To confirm earlier studies of these cells using the NIRF probes we labeled them with general Cy5-labeled probe GB123 (FIG. 1C). […] Labeling of the same cells with ^64Cu-Z-FK(DOTA)-AOMK confirmed that the DOTA produced a similar labeling pattern to that observed for the NIRF probe GB123.
C2C12/Ras and MDA-MB-435 cells (0.25 M each well) were seeded in a six-well plate one day before the study. Cells were pretreated with the general papain family protease inhibitor JPM-OEt (50 μM^28) or with control DMSO (0.1%) for 1 h and labeled by addition of ^64Cu-Z-FK(DOTA)-AOMK (555 KBq, 15 μCi) to culture medium for 2 h. Cells was then washed with PBS and lysed. Equal amounts of protein per lane were separated by 12% SDS-PAGE. […] The labeled bands were quantified with ImageJ 1.36b (public domain software from National Institute of Health).

## Cc1cccc(C)c1C(=O)OCC(=O)[C@H](CCCCNC(=O)CN1CCN(CC(=O)[O-])CCN(CC(=O)O)CCN(CC(=O)[O-])CC1)NC(=O)[C@H](Cc1ccccc1)NC(=O)OCc1ccccc1.[64Cu+2] [^64Cu-Z-FK(DOTA)-AOMK]
[1]
  MicroPET tumor visualization / contrast: low tumor uptake and poor tumor to normal tissue contrast
[2]
  MicroPET tumor visualization / contrast: clearly visualized with good tumor to contralateral background contrast
[3]
  log P (octanol-water partition coefficient): −0.10±0.04
[4]
  Labeling of active cathepsins in intact cells: efficiently modifies active cathepsins B and L
